Laboratory results published in patent US8461305B2, “L-fucose α1→6 specific lectin” (J-Oil Mills, Inc., priority 2008, dated 2013).

Experiments:
[1] = frontal affinity chromatography (FAC), association constant to PA sugar chains without L-fucose; assay type: binding; conditions: 25 degrees C.
Protocol: (§1) The following section will describe a method of calculating an association constant by frontal affinity chromatography (FAC). This method is based on the following principle. […] Then, the elution front end (front) is observed immediately. When there is an affinity with lectin, the elution of the sugar chain is delayed.
(§2) The preparation of a lectin column used in the apparatus is performed in the method as described below. 1. Purified lectin is dissolved in 0.1 to 0.2M of NaHCO3 buffer solution (pH 8.3 to 8.5). 2. The lectin is immobilized, via a lectin primary amino group, a carrier such as NHS activated sepharose. 3. Then, the lectin is blocked by Tris buffer solution including primary amine or ethanolamine for example. 4. Lectin-sepharose is suspended in 10 mM Tris buffer, including 0.8% of NaCl (pH 7.4, TBS). Then, lectin immobilized resin is filled in a miniature column (φ2 mm×10 mm, 31.4 μl). 5. The miniature column in which the lectin immobilized resin is filled is protected by a holder and the lectin column is connected to an FAC automatic analysis apparatus (FAC-1, SHIMADZU CORPORATION).
(§3) Then, the elution of the PA sugar chain from the column is detected by a fluorescence detector (excitation wavelength/fluorescence wavelength: 310 nm/380 nm).
(§4) Based on the detection data, by using the elution front end (Vo) of the sugar chain (PA rhamnose) not interacting with lectin as a reference, the delay (V−Vo) of the elution front end (V) of a sugar chain interacting with lectin is calculated as an interaction strength. Then, based on the following FAC criteria expressions, the association constant (Ka) between the sugar chain and lectin is calculated based on V−Vo and Bt. If the interaction strength (V−Vo value) and the association constant are higher, a higher affinity is caused between lectin and an L-fucose α1→6 sugar chain.
(§5) [In the formula, A means substance used for the elution, Ao means the initial concentration of the substance A, B means a immobilized ligand, V means the elution volume, Vo means the elution front end volume of the substance not interacting with the immobilized ligand B at all, Bt means an effective ligand amount, Kd means a dissociation constant (an inverse of the association constant)].
(§6) Pyridylaminated (PA) sugar chains shown in FIG. 1 and FIG. 2 were used to frontal affinity chromatography (FAC) analysis. PA sugars were purchased from TAKARA BIO INC., SEIKAGAKU BIOBUSINESS CORPORATION, and Masuda Chemical Industries co., LTD. PA sugar were also obtained by pyridylaminating, by GlycoTAG®(TAKARA BIO INC.), an unlabeled sugar chain or a sugar chain obtained by subjecting a sugar chain to enzyme digestion for example.
(§7) Lectin was dissolved in 0.2 M NaHCO3 buffer solution (pH 8.3) including 0.5 M NaCl and coupled to the NHS-activated sepharose (GE Healthcare Bioscience) by following the manufacturer's instructions. Then, lectin immobilized sepharose was suspended in 10 mM Tris buffer (pH 7.4, TBS) including […] and the resultant matter was filled in a miniature column (φ2 mm×10 mm, 31.4 μl).
(§8) Frontal affinity chromatography was performed using FAC automatic analysis apparatus (FAC-1, SHIMADZU CORPORATION). In particular, the above-prepared lectin column was inserted to a stainless steel holder and the holder was connected to FAC-1 apparatus. The flow rate and the column temperature were maintained at 0.125 ml/min and 25 degrees C., respectively. After the miniature column was equilibrated by the TBS, an excessive volume (0.5 ml to 4 ml) of a PA sugar chain (3.75 nM or 7.5 nM) was continuously inputted to the column using an automatic sampling apparatus.
(§9) The fluorescent strength of the eluate of the PA sugar (excitation wavelength of 310 nm and fluorescence wavelength of 380 nm) was monitored to measure the interaction strength [a difference of the front end eluate to the standard oligosaccharide (PA rhamnose): V−V0]. […]

[2] = frontal affinity chromatography (FAC), association constant to PA sugar chains having other L-fucose; assay type: binding; conditions: 25 degrees C.
Protocol: as §1, §2, §3, §4, §5, §6, §7, §8, §9

Measured: association constant Ka

Aspergillus oryzae lectin [AOL, reference compound]
<1000 M⁻¹: [1]; Sugar chain No. 001 | [1]; Sugar chain No. 002 | [1]; Sugar chain No. 003 | [1]; Sugar chain No. 004 | [1]; Sugar chain No. 006 | [1]; Sugar chain No. 007 | [1]; Sugar chain No. 009 | [1]; Sugar chain No. 010 | [1]; Sugar chain No. 011 | [1]; Sugar chain No. 012 | [1]; Sugar chain No. 013 | [1]; Sugar chain No. 014 | [1]; Sugar chain No. 101 | [1]; Sugar chain No. 103 | [1]; Sugar chain No. 104 | [1]; Sugar chain No. 105 | [1]; Sugar chain No. 107 | [1]; Sugar chain No. 108 | [1]; Sugar chain No. 305 | [1]; Sugar chain No. 307 | [1]; Sugar chain No. 313 | [1]; Sugar chain No. 314 | [1]; Sugar chain No. 323 | [1]; Sugar chain No. 501 | [1]; Sugar chain No. 502 | [1]; Sugar chain No. 503 | [1]; Sugar chain No. 504 | [1]; Sugar chain No. 701 | [1]; Sugar chain No. 702 | [1]; Sugar chain No. 703 | [1]; Sugar chain No. 704 | [1]; Sugar chain No. 705 | [1]; Sugar chain No. 706 | [1]; Sugar chain No. 707 | [1]; Sugar chain No. 708 | [1]; Sugar chain No. 709 | [1]; Sugar chain No. 710 | [1]; Sugar chain No. 711 | [1]; Sugar chain No. 712 | [1]; Sugar chain No. 713 | [1]; Sugar chain No. 715 | [1]; Sugar chain No. 716 | [1]; Sugar chain No. 717 | [1]; Sugar chain No. 724 | [1]; Sugar chain No. 725 | [1]; Sugar chain No. 728 (as listed in Table 7) | [1]; Sugar chain No. 732 | [1]; Sugar chain No. 733 | [1]; Sugar chain No. 734 | [1]; Sugar chain No. 735 | [1]; Sugar chain No. 736 | [1]; Sugar chain No. 737 | [1]; Sugar chain No. 738 | [1]; Sugar chain No. 901 | [1]; Sugar chain No. 902 | [1]; Sugar chain No. 903 | [1]; Sugar chain No. 905 | [1]; Sugar chain No. 906 | [1]; Sugar chain No. 907 | [2]; Sugar chain No. 419 | [2]; Sugar chain No. 420 | [2]; Sugar chain No. 719 | [2]; Sugar chain No. 720 | [2]; Sugar chain No. 721 | [2]; Sugar chain No. 723 | [2]; Sugar chain No. 726 | [2]; Sugar chain No. 729 | [2]; Sugar chain No. 730 | [2]; Sugar chain No. 731 | [2]; Sugar chain No. 739 | [2]; Sugar chain No. 932
20000 M⁻¹: [1]; Sugar chain No. 304 | [1]; Sugar chain No. 308
69000 M⁻¹: [1]; Sugar chain No. 008
76000 M⁻¹: [2]; Sugar chain No. 727
99000 M⁻¹: [2]; Sugar chain No. 931
31000 M⁻¹: [2]; Sugar chain No. 933
44000 M⁻¹: [2]; Sugar chain No. 909
7300 M⁻¹: [1]; Sugar chain No. 005
170000 M⁻¹: [2]; Sugar chain No. 718
56000 M⁻¹: [2]; Sugar chain No. 722 | [2]; Sugar chain No. 910
18000 M⁻¹: [1]; Sugar chain No. 301
12000 M⁻¹: [2]; Sugar chain No. 728 (as listed in Table 5/12)
